Results: US11033562B2, “Carbohydrate derivatives used for surface modification of immune cells, use thereof and method thereof” (Xiamen Nuokangde Biological Technology Co., Ltd., priority 2018, dated 2021)

Test system: CD22-fc
Experiment: Analysis of CD22 ligand on surfaces of NK-92 cells (CD22-fc binding, flow cytometry and confocal)
Type: cell-based
Conditions: NK-92 cells incubated with the sialic acid derivative; FIGS. 7A and 7B
Procedure: Culturing ATCC (American Type Culture Collection)-derived NK-92 (ATCC® CRL2407™) cells (also known as NK-92 cell lines) on a fourth alpha-MEM growth medium (comprising 12.5% (v/v) newborn bovine serum, 12.5% (v/v) horse serum, 100 U/ml recombinant IL-2) in an incubator with 5% (v/v) CO2 atmosphere at 37° C., then replacing the fourth alpha-MEM growth medium with a fifth alpha-MEM growth medium (comprising 2 mMPB-sia), continuing to culture for 48 hours, and washing for three times to obtain MPB-sia modified NK-92 cells, which is referred to as MsNK-92 cells.
Washing MPB-sia or BPC-sia modified NK-92 cells with PBS buffer for three times, adding 100 μL, PBS, adding 1 μg CD22-fc to obtain a first mixture, then culturing the first mixture on ice for 30 minutes, washing three times with PBS buffer, then adding anti-CD22-PE to obtain a second mixture, culturing the second mixture on ice for 30 minutes, washing three times, then collecting cells, quantifying the extent of CD22 binding by flow cytometry analysis, and imaging by confocal microscopy.
Increasing the concentration of MPB-sia enhanced the levels of CD22 ligand expression on cell surfaces reaching a maximum at 4 mM of MPB-sia at 24 hours (FIG. 8A). […] Next, the persistence of CD22 ligands on engineered NK-92 cells was analyzed. […]

## CC(=O)N[C@H]1[C@H]([C@H](O)[C@H](O)CO)OC(O)(C(=O)O)C[C@@H]1O (stereo partly shown) [sialic acid (sia), sialic acid (N-acetylneuraminic acid)]
  CD22 binding to NK-92 cells (flow cytometry): little binding with CD22 over the background
